Holding throughout (assay type): functional
In assay [1] the test system is Staphylococcus aureus. As to the kind of experiment: Antibacterial activity against methicillin-resistant Staphylococcus aureus N315 after 24 hrs by two fold serial dilution method. To be noted: N315, 24 h.
The subject of assay [2] is Enterococcus faecalis. Nature of the assay: Antibacterial activity against Enterococcus faecalis after 24 hrs by two fold serial dilution method.
In assay [3] the test system is Staphylococcus aureus. As to the kind of experiment: Antibacterial activity against Staphylococcus aureus after 24 hrs by two fold serial dilution method.
Assay [4] relates to Staphylococcus aureus. As to the kind of experiment: Antibacterial activity against Staphylococcus aureus ATCC 25923 after 24 hrs by two fold serial dilution method. To be noted: ATCC 25923, 24 h.
Assay [5] deals with Staphylococcus aureus. Nature of the assay: Antibacterial activity against Staphylococcus aureus ATCC 29213 after 24 hrs by two fold serial dilution method. The following applies: ATCC 29213, 24 h.
Assay [6] concerns Klebsiella pneumoniae. As to the kind of experiment: Antibacterial activity against Klebsiella pneumoniae after 24 hrs by two fold serial dilution method.
Assay [7] relates to Escherichia coli. Nature of the assay: Antibacterial activity against Escherichia coli after 24 hrs by two fold serial dilution method.
Assay [8] relates to Pseudomonas aeruginosa. Nature of the assay: Antibacterial activity against Pseudomonas aeruginosa after 24 hrs by two fold serial dilution method.
For assay [9], the system named is Acinetobacter baumannii. As to the kind of experiment: Antibacterial activity against Acinetobacter baumannii after 24 hrs by two fold serial dilution method.
The subject of assay [10] is Pseudomonas aeruginosa. Nature of the assay: Antibacterial activity against Pseudomonas aeruginosa ATCC 27853 after 24 hrs by two fold serial dilution method. The following applies: ATCC 27853, 24 h.
The test system of assay [11] is Escherichia coli. As to the kind of experiment: Antibacterial activity against Escherichia coli ATCC 25922 after 24 hrs by two fold serial dilution method. The following applies: ATCC 25922, 24 h.
Assay [12] deals with Candida albicans. As to the kind of experiment: Antifungal activity against Candida albicans after 24 hrs by two fold serial dilution method.
For assay [13], the system named is Candida tropicalis. Nature of the assay: Antifungal activity against Candida tropicalis after 24 hrs by two fold serial dilution method.
The test system of assay [14] is Aspergillus fumigatus. Nature of the assay: Antifungal activity against Aspergillus fumigatus after 24 hrs by two fold serial dilution method.
Assay [15] deals with Candida albicans. Nature of the assay: Antifungal activity against Candida albicans ATCC 90023 after 24 hrs by two fold serial dilution method. To be noted: ATCC 90023, 24 h.
In assay [16] the test system is Candida parapsilosis. As to the kind of experiment: Antifungal activity against Candida parapsilosis ATCC 22019 after 24 hrs by two fold serial dilution method. The following applies: ATCC 22019, 24 h.

Values after ≈ are worked out from the molar mass of the structure shown.

The MIC is the lowest concentration that inhibits growth of the organism. A low value points to a more susceptible organism. One may read the MIC80 as an inhibitory concentration at the 80% level, which refers to growth in some studies and to a panel of isolates in others. As to `FC(F)(F)c1nc2ccccc2n1CCn1cnc2c(N3CCOCC3)ncnc21`, the minimal inhibitory concentration (MIC) in assay [1] was 256 µg/mL (≈ 613 µM); in [2], 64 µg/mL (≈ 153 µM); in assay [3], 32 µg/mL (≈ 76.7 µM); in assay [4] it was 64 µg/mL (≈ 153 µM); in assay [5] it was 128 µg/mL (≈ 307 µM); in [6], 64 µg/mL (≈ 153 µM). Further, the MIC in assay [7] amounted to 32 µg/mL (≈ 76.7 µM); in [8], 128 µg/mL (≈ 307 µM); in assay [9] it was 64 µg/mL (≈ 153 µM); in assay [10] it was 64 µg/mL (≈ 153 µM); in [11], 128 µg/mL (≈ 307 µM). The MIC80 in assay [12] amounted to 256 µg/mL (≈ 613 µM); in assay [13], 256 µg/mL (≈ 613 µM); in assay [14], 256 µg/mL (≈ 613 µM); in assay [15], 256 µg/mL (≈ 613 µM); in assay [16], 128 µg/mL (≈ 307 µM).

In the case of `C#CCn1c(Cn2cnc3c(N4CCOCC4)ncnc32)nc2ccccc21`, the MIC was 512 µg/mL (≈ 1370 µM) in assay [1]; 256 µg/mL (≈ 686 µM) in assay [2]; 128 µg/mL (≈ 343 µM) in assay [3]; 128 µg/mL (≈ 343 µM) in [4]; 256 µg/mL (≈ 686 µM) in [5]; 128 µg/mL (≈ 343 µM) in [6]. For the same compound, the MIC in assay [7] amounted to 128 µg/mL (≈ 343 µM); in [8], 256 µg/mL (≈ 686 µM); in assay [9], 256 µg/mL (≈ 686 µM); in assay [10], 128 µg/mL (≈ 343 µM); in [11] it was 512 µg/mL (≈ 1370 µM). Besides, the MIC80 amounted to 256 µg/mL (≈ 686 µM) in assay [12]; 128 µg/mL (≈ 343 µM) in assay [13]; 512 µg/mL (≈ 1370 µM) in [14]; 256 µg/mL (≈ 686 µM) in [15]; 256 µg/mL (≈ 686 µM) in assay [16].

As to `CCCCCCCCn1c(Cn2cnc3c(N4CCOCC4)ncnc32)nc2ccccc21`, the MIC came to 512 µg/mL (≈ 1140 µM) in assay [1]; 256 µg/mL (≈ 572 µM) in assay [2]; 512 µg/mL (≈ 1140 µM) in assay [3]; 512 µg/mL (≈ 1140 µM) in assay [4]; 256 µg/mL (≈ 572 µM) in [5]; 256 µg/mL (≈ 572 µM) in assay [6]. The MIC is 256 µg/mL (≈ 572 µM) in assay [7]; 256 µg/mL (≈ 572 µM) in assay [8]; 256 µg/mL (≈ 572 µM) in assay [9]; 128 µg/mL (≈ 286 µM) in assay [10]; 256 µg/mL (≈ 572 µM) in assay [11]. In addition, the MIC80 is 256 µg/mL (≈ 572 µM) in assay [12]; 256 µg/mL (≈ 572 µM) in assay [13]; 512 µg/mL (≈ 1140 µM) in assay [14]; 64 µg/mL (≈ 143 µM) in [15]; 512 µg/mL (≈ 1140 µM) in assay [16].

On to `CCCCCCn1c(Cn2cnc3c(N4CCCC4)ncnc32)nc2ccccc21`, for which the MIC was found to be 64 µg/mL (≈ 159 µM) in [1]; 256 µg/mL (≈ 634 µM) in [2]; 32 µg/mL (≈ 79.3 µM) in assay [3]; 64 µg/mL (≈ 159 µM) in assay [4]; 512 µg/mL (≈ 1270 µM) in assay [5]; 128 µg/mL (≈ 317 µM) in assay [6]. Moreover, the MIC worked out at 256 µg/mL (≈ 634 µM) in assay [7]; 128 µg/mL (≈ 317 µM) in [8]; 64 µg/mL (≈ 159 µM) in assay [9]; 256 µg/mL (≈ 634 µM) in [10]; 16 µg/mL (≈ 39.6 µM) in assay [11]. The MIC80 in assay [12] was 64 µg/mL (≈ 159 µM); in [13], 128 µg/mL (≈ 317 µM); in assay [14], 128 µg/mL (≈ 317 µM); in assay [15] it was 32 µg/mL (≈ 79.3 µM); in assay [16], 32 µg/mL (≈ 79.3 µM).

Turning to `c1nc(N2CCOCC2)c2nc[nH]c2n1`, the MIC in assay [1] worked out at 512 µg/mL (≈ 2490 µM); in assay [2] it was 128 µg/mL (≈ 624 µM); in assay [3] it was 256 µg/mL (≈ 1250 µM); in assay [4] it was 512 µg/mL (≈ 2490 µM); in assay [5], 512 µg/mL (≈ 2490 µM); in [6], 128 µg/mL (≈ 624 µM). In addition, the minimal inhibitory concentration (MIC) in assay [7], in assay [8], in [9], in [10] and in assay [11] was 256 µg/mL (≈ 1250 µM) each time. For the same compound, the MIC80 in assay [12] was 256 µg/mL (≈ 1250 µM); in assay [13], 256 µg/mL (≈ 1250 µM); in [14] it was 256 µg/mL (≈ 1250 µM); in [15], 256 µg/mL (≈ 1250 µM); in assay [16] it was 512 µg/mL (≈ 2490 µM).

For `c1ccc2c(c1)ncn2CCn1cnc2c(N3CCOCC3)ncnc21`, the minimal inhibitory concentration (MIC) was 256 µg/mL (≈ 733 µM) in assay [1]; 128 µg/mL (≈ 366 µM) in assay [2]; 256 µg/mL (≈ 733 µM) in assay [3]; 256 µg/mL (≈ 733 µM) in assay [4]; 256 µg/mL (≈ 733 µM) in [5]; 256 µg/mL (≈ 733 µM) in assay [6]. The minimum inhibitory concentration (MIC) in assay [7] came to 256 µg/mL (≈ 733 µM); in [8], 128 µg/mL (≈ 366 µM); in [9], 256 µg/mL (≈ 733 µM); in [10], 256 µg/mL (≈ 733 µM); in assay [11] it was 128 µg/mL (≈ 366 µM). Besides, the MIC80 in assay [12] came to 256 µg/mL (≈ 733 µM); in assay [13], 256 µg/mL (≈ 733 µM); in assay [14], 256 µg/mL (≈ 733 µM); in assay [15] it was 128 µg/mL (≈ 366 µM); in assay [16], 128 µg/mL (≈ 366 µM).

`CCCCn1c(Cn2cnc3c(N4CCOCC4)ncnc32)nc2ccccc21`: the MIC turned out to be 512 µg/mL (≈ 1310 µM) in assay [1]; 256 µg/mL (≈ 654 µM) in assay [2]; 256 µg/mL (≈ 654 µM) in [3]; 256 µg/mL (≈ 654 µM) in [4]; 128 µg/mL (≈ 327 µM) in [5]; 256 µg/mL (≈ 654 µM) in assay [6]. Besides, the minimal inhibitory concentration (MIC) in [7] is 64 µg/mL (≈ 163 µM); in assay [8] it was 256 µg/mL (≈ 654 µM); in assay [9], 256 µg/mL (≈ 654 µM); in [10], 128 µg/mL (≈ 327 µM); in [11] it was 128 µg/mL (≈ 327 µM). In addition, the MIC80 worked out at 256 µg/mL (≈ 654 µM) in [12]; 128 µg/mL (≈ 327 µM) in [13]; 256 µg/mL (≈ 654 µM) in [14]; 128 µg/mL (≈ 327 µM) in [15]; 256 µg/mL (≈ 654 µM) in assay [16].

Source of the values: ChEMBL document CHEMBL4219183, “Novel purine benzimidazoles as antimicrobial agents by regulating ROS generation and targeting clinically resistant Staphylococcus aureus DNA groove” (Bioorg Med Chem Lett, 2018).
